According to patent US20060069132A1, “Azolecarboxamide herbicides” (priority 2004, published 2006):

Experiments:
cocklebur (XANST) = test: Test J Compounds 2 and 6 alone and in combination with other herbicides, foliage spray; type: in vivo, Xanthium strumarium; design: key: 0 = no effect, 100 = complete control; details: applied alone
Excerpt: (§1) Seeds of test plants consisting of barnyardgrass (ECHCG; Echinochloa crus-galli (L.) Beauv.), blackgrass (ALOMY; Alopecurus myosuroides Huds.), Surinam grass (BRADC; Urochloa decumbens (Staph) R. D. Webster, previously named Brachiaria decumbens Stapf), cocklebur (XANST, Xanthium strumarium L.), corn (ZEAMD, Zea mays L. cv. ‘Pioneer 33G26’), large crabgrass (DIGSA, Digitaria sanguinalis (L.) Scop.), giant foxtail (SETFA, Setaria faberi Herrm.), lambsquarters (CHEAL, Chenopodium album L.), morningglory (IPOCO, Ipomoea coccinea L.), pigweed (AMARE, Amaranthus retroflexus L.), velvetleaf (ABUTH, Abutilon theophrasti Medik.) wheat (TRZAS, Triticum aestivum L. cv. ‘Recital’) and wild oat (AVEFA, Avena fatua L.) were planted in Redi-Earth® planting medium (Scotts Company, 14111 Scottslawn Road, Marysville, Ohio 43041) comprising spaghnum peat moss and vermiculite. Seeds of small-seeded species were planted about 1 cm deep; larger seeds were planted about 2.5 cm deep. Plants were grown in a greenhouse using supplemental lighting to maintain a photoperiod of about 14 hours; daytime and nighttime temperatures were about 24-30° C. and 22-25° C., respectively. Balanced fertilizer was applied through the watering system. The plants were grown for 7 to 11 days so that at time of treatment the plants ranged in height from 2 to 18 cm (1- to 4-leaf stage). Treatments consisted of Compounds 2 and 6 (technical material), atrazine (90DF), terbacil (Sinbar® 80DF), hexazinone (Velpar® 75WG), diuron (Karmex® 80WP) and paraquat (Gramoxone® Extra, 37%) alone and in combination, suspended or dissolved in an aqueous solvent comprising a nonionic surfactant and applied as a foliage spray using a volume of 541 L/ha. Each treatment was triply replicated. […] Treated plants and controls were maintained in the greenhouse and watered as needed with care to not wet the foliage for the first 24 hours after treatment. The effects on the plants 15 days after treatment were visually compared to untreated controls. Plant response ratings, listed in Table J as the means of the thee replicates, are based on a scale of 0 to 100 where 0 is no effect and 100 is complete control. Also listed in Table J are the expected effects for the mixtures calculated using Colby's Equation.

barnyardgrass (ECHCG) = test: as above; type: in vivo, Echinochloa crus-galli; design: key: percentage herbicidal effect (observed); details: applied alone
Excerpt: (§2) Colby's Equation was used to calculate the expected additive herbicidal effect of the mixtures of Compound 6 with Harmony® Extra (i.e. a 2:1 mixture by weight of thifensulfuron-methyl and tribenuron-methyl). Colby's Equation (Colby, S. R. “Calculating Synergistic and Antagonistic Responses of Herbicide Combinations,” Weeds, 15(1), pp 20-22 (1967)) calculates the expected additive effect of herbicidal mixtures, and for two active ingredients is of the form: Pa+b=Pa+Pb−(PaPb/100) wherein • Pa+b is the percentage effect of the mixture expected from additive contribution of the individual components, • Pa is the observed percentage effect of the first active ingredient at the same use rate as in the mixture, and • Pb is the observed percentage effect of the second active ingredient at the same use rate as in the mixture.
as §1

Surinam grass (BRADC) = test: as above; type: in vivo, Urochloa decumbens; design: key: 0 = no effect, 100 = complete control; details: applied alone
Method in brief: (§3)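 Visual control rating (0 = no effect, 100 = complete control), mean of three replicates, scored 15 days after a 541 L/ha foliar spray of 1- to 4-leaf plants. Mixture expectations derived with Colby's Equation from the single-component effects at matching rates.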

velvetleaf (ABUTH) = test: as above; type: in vivo, Abutilon theophrasti; design: key: 0 = no effect, 100 = complete control; details: applied alone
Method in brief: as §3

wheat (TRZAS) = test: as above; type: in vivo, Triticum aestivum; design: key: 0 = no effect, 100 = complete control; details: applied alone
Method in brief: as §3

morningglory (IPOCO) = test: as above; type: in vivo, Ipomoea coccinea; design: key: 0 = no effect, 100 = complete control; details: applied alone
Method in brief: as §3

giant foxtail (SETFA) = test: as above; type: in vivo, Setaria faberi; design: key: 0 = no effect, 100 = complete control; details: applied alone
Method in brief: as §3

pigweed (AMARE) = test: as above; type: in vivo, Amaranthus retroflexus; design: key: 0 = no effect, 100 = complete control; details: applied alone
Method in brief: as §3

large crabgrass (DIGSA) = test: as above; type: in vivo, Digitaria sanguinalis; design: key to DIGSA Obsd.: 0 = no effect, 100 = complete control; details: for DIGSA Obsd.: applied alone; for observed effect of mixture compared with additive effect expected from Colby's Equation: crabgrass, foliage spray, 15 days after treatment
Method in brief: as §3

lambsquarters (CHEAL) = test: as above; type: in vivo, Chenopodium album; design: key: % herbicidal effect (observed); details: applied alone
Excerpt: as §2, §1

wild buckwheat = test: Test F pre-/postemergence herbicide test; type: in vivo, Polygonum convolvulus; details: 125 g ai/ha
Excerpt: (§4) Seeds of plant species selected from annual blugrass (Poa annua L.), blackgrass (Alopecurus myosuroides Huds.), catchweed bedstraw (Gallium aparine L.), common chickweed (Stellaria media (L.) Vill./Cyr.), downy bromegrass (Bromus tectorum L.), green foxtail (Setaria viridis (L.) Beauv.), Italian ryegrass (Lolium multiflorum Lam.), kochia (Kochia scoparia (L.). Schrad.), lambsquarters (Chenopodium album L.), littleseed canarygrass (Phalaris minor Retz.), pigweed (Amaranthus retroflexus L.), Russian thistle (Salsola kali L. ssp. Ruthenica (Iljin) Soo), wild buckwheat (Polygonum convolvulus L.), wild mustard (Sinapis arvensis L.), wild oat (Avena fatua L.), windgrass (Apera spica-venti (L.) Beauv.), winter barley (Hordeum vulgare L.), and wheat (Triticum aestivum L.) were planted and treated preemergence with test chemicals formulated in a non-phytotoxic solvent mixture which included a surfactant.
(§5) At the same time, plants selected from these crop and weed species were treated with postemergence applications of some of the test chemicals formulated in the same manner. Plants ranged in height from 2 to 18 cm (1- to 4-leaf stage) for postemergence treatments. Treated plants and controls were maintained in a greenhouse for 12 to 14 days, after which time all species were compared to controls and visually evaluated. […]

Russian thistle = test: Test F pre-/postemergence herbicide test; type: in vivo, Salsola kali; details: 125 g ai/ha
Excerpt: as §4, §5

## CCNC(=O)c1ccc(F)c(NC(=O)c2cc(C(C)(C)C)nn2CC)c1 [Compound 2, 3-(1,1-dimethylethyl)-1-ethyl-N-[5-[(ethylamino)carbonyl]-2-fluorophenyl]-1H-pyrazole-5-carboxamide]
Cocklebur (XANST); 62 g a.i./ha
  XANST Obsd.: 50
Cocklebur (XANST); 125 g a.i./ha
  XANST Obsd.: 58
Barnyardgrass (ECHCG); 62 g a.i./ha
  ECHCG Obsd.: 13
Barnyardgrass (ECHCG); 125 g a.i./ha
  ECHCG Obsd.: 8
Surinam grass (BRADC); 62 g a.i./ha
  BRADC Obsd.: 8
Surinam grass (BRADC); 125 g a.i./ha
  BRADC Obsd.: 17
Velvetleaf (ABUTH); 62 g a.i./ha
  ABUTH Obsd.: 17
Velvetleaf (ABUTH); 125 g a.i./ha
  ABUTH Obsd.: 18
Wheat (TRZAS); 62 g a.i./ha
  TRZAS Obsd.: 8
Wheat (TRZAS); 125 g a.i./ha
  TRZAS Obsd.: 10
Morningglory (IPOCO); 62 g a.i./ha
  IPOCO Obsd.: 17
Morningglory (IPOCO); 125 g a.i./ha
  IPOCO Obsd.: 27
Giant foxtail (SETFA); 62 g a.i./ha
  SETFA Obsd.: 28
Giant foxtail (SETFA); 125 g a.i./ha
  SETFA Obsd.: 32
Pigweed (AMARE); 62 g a.i./ha
  AMARE Obsd.: 47
Pigweed (AMARE); 125 g a.i./ha
  AMARE Obsd.: 68
Large crabgrass (DIGSA); 62 g a.i./ha
  DIGSA Obsd.: 5
Large crabgrass (DIGSA); 125 g a.i./ha
  DIGSA Obsd.: 15
Large crabgrass (DIGSA); mixture with diuron
  observed effect of mixture compared with additive effect expected from Colby's Equation: greater than additive
Large crabgrass (DIGSA); mixture with terbacil
  observed effect of mixture compared with additive effect expected from Colby's Equation: greater than additive
Lambsquarters (CHEAL); 62 g a.i./ha
  CHEAL Obsd.: 40
Lambsquarters (CHEAL); 125 g a.i./ha
  CHEAL Obsd.: 55

## CCc1nn(C(C)(C)C)cc1C(=O)Nc1cc(C(=O)N(CC)CC)ccc1F [Compound 223]
Wild buckwheat; Postemergence
  Plant response rating (0-100), Buckwheat, Wild: 40
Wild buckwheat; Preemergence
  Plant response rating (0-100), Buckwheat, Wild: 55
Russian thistle; Postemergence
  Plant response rating (0-100), Thistle: 60
Russian thistle; Preemergence
  Plant response rating (0-100), Thistle: 60
